Where “and” joins values, the source holds several entries; their conditions need not be identical. Identical values can stand only once.
Assays:
[1] = Non-specific liver microsomal binding, HLM; assay type: in vitro ADME; settings: human liver microsomes
Procedure: (§1) Plasma protein binding was determined in pooled human plasma using an ultracentrifugation method. Stock solutions of test compounds were diluted in phosphate buffer and spiked into plasma in deep well 96-well plates. An aliquot of each compound was immediately precipitated with ice cold acetonitrile containing the internal standard carbamazepine (0.1 μM). These served as total concentration samples. After incubation in a water bath (37°C for 1 h), samples were transferred to ultracentrifuge tubes in duplicate and centrifuged for 4 h at 37°C and 30,000 g (Optima L-80XP, Beckman). Following centrifugation, the supernatant was transferred to the plate containing the total concentration samples and precipitated with ice cold acetonitrile containing the internal standard. Samples were analysed by LC-MS/MS (Shimadzu HPLC coupled with an AB Sciex 3200 Q TRAP MS). Non-specific binding in mouse liver microsomes (MLM) and human liver microsomes (HLM) were also determined with the ultracentrifugation method. Stock solutions of compounds (10 mM) were added in duplicate to microsome solution (0.5 mg/mL) in phosphate buffer (pH 7.4) to obtain a final drug concentration of 1 μM. The same method as for plasma protein binding was utilized. Analyte concentrations of all compounds were determined via LC-MS/MS (reverse phase Gemini NX-C18 column and Shimadzu HPLC coupled with an AB Sciex 3200 Q TRAP MS).

[2] = In vivo pharmacokinetics, oral administration; set-up: species or system C57BL/6 mice; settings: mice
Procedure: Healthy C57BL/6 mice each weighing approximately 25 g were maintained at the University of Cape Town animal facility. Mice were housed in 27 × 21 × 28 cm cages (n = 3) under controlled environmental conditions at 22 ± 2°C, humidity of 55 ± 15% and a 12-hour light/dark cycle. Food and water were available ad libitum. Mice were acclimatised to the experimental environment for 4–5 days prior to initiating the experiments. RMB005, −059 and −060 were prepared in an aqueous solution of HPMC containing 0.2% Tween 80. The weighed compound was sonicated and vortexed to obtain a homogenous suspension. Oral dosing of 20 mg/kg was achieved via oral gavage. The total volume per administration was 200 μL. Blood samples were collected post-dose in lithium heparin microvials via tail bleeding at predetermined intervals at 0.5, 1, 3, 5, 8, 10, and 24 h. Samples were gently vortexed and stored at −80°C until analysis. A quantitative LC-MS/MS assay was used to determine whole-blood concentrations of RMB005, −059 and −060. Whole blood samples (20 μL) were treated with 100 μL ice cold acetonitrile containing the compound RMB073 used previously for determination of whole blood concentrations in analysis of TB-active compounds, as internal standard (200 ng/ml) ([Tanner et al., 2019]). The mixture was vortexed vigorously for 1 min, and 5 µL of the supernatant were injected onto the analytical column following centrifugation (5,590 g for 5 min). Gradient elution was carried out using a Gemini NX-C18 analytical column (5 μm, 2.1 mm × 50 mm). The aqueous mobile phase consisted of 5 mm ammonium acetate with 0.1% acetic acid in deionised water, while the organic phase consisted of 0.1% acetic acid in acetonitrile. A Shimadzu HPLC and reverse phase Gemini NX-C18 column coupled to an AB Sciex 3200 Q TRAP MS was operated at unit resolution in the multiple reaction monitoring (MRM) mode. […] The calibration standards ranged from 2 ng/mL to 3,000 ng/mL for RMB005, and 2 ng/mL to 4,000 ng/mL for RMB059, −060 and DQ. Drug concentration versus time plots for each compound were used to determine maximal drug concentration C max, time T max to reach C max, elimination half-life t 1/2 and the area under the concentration-time curve from time zero to infinity, AUC0-inf. From these values the following PK parameters—clearance CL, volume of distribution (Vd) and oral bioavailability (BA) were determined using the non-compartmental analysis Microsoft Excel Add-In PKSolver ([Zhang et al., 2010]).

[3] = Plasma protein binding (ultracentrifugation); assay type: in vitro ADME; settings: pooled plasma; human plasma; read-out: Bound to plasma proteins (converted)
Procedure: as §1

[4] = Metabolic stability in human liver microsomes; assay type: in vitro ADME
Procedure: A 5-point metabolic stability assay in human and mouse liver microsomes were performed in duplicate in 96-well plates. Stock solution of RMB005, −059 and 060 prepared in DMSO were individually incubated at 37°C in mouse and pooled human liver microsomes (0.4 mg/mL). An aliquot was removed at 0 min and quenched with ice cold acetonitrile containing the internal standard carbamazepine (0.1 μM). The cofactor NADPH was added, and the reactions were subsequently stopped at time points 5, 10, 30, and 60 min by removal of an aliquot and quenching with ice cold acetonitrile containing the internal standard. The supernatant of all samples were analysed via LC-MS/MS analysis (reverse phase Gemini NX-C18 column and Shimadzu HPLC and AB Sciex 3200 Q TRAP MS). Calculation of in vitro t1/2, intrinsic clearance rate (CLint) and predicted in vivo clearance (CLH) was carried out using the following equations ([Obach 1999]). CLintClint= 0.693/t1/2(min) ×Volume of incubation (μL)/microsomal protein (μg) Where t1/2 is calculated in minutes.
Predicted in vivo CLH CLH=Q × fu(plasma)×CLint/fu(mic)/Q+ fu(plasma)× CLint/fu(mic) Where Q is the hepatic blood flow of mouse (90 mL/min/kg) or human (20.7 mL/min/kg). Fu(plasma) is the unbound drug fraction in the plasma and fu(mic) is the unbound fraction in the microsomes.
The equation below was used in the case of RMB059 and -060, where protein-binding data were not available. CLH=Q × CLint/Q+ CLint

Bound to microsomes [1]: 99% | Tmax ([2]; C57BL/6, mouse, whole blood, po, 20 mg/kg, po 20 mg/kg, dosed compound measured): ~42 min | Cmax ([2]; C57BL/6, mouse, po 20 mg/kg, whole blood, dosed compound measured, read-out: Cmax): 490 ± 20 nM | BA ([2]; po 20 mg/kg vs iv, 20 mg/kg): 4% and 4 ± 0.3% | AUC0-∞ ([2]; po 20 mg/kg, whole blood, dosed compound measured, 20 mg/kg): 59 µmol·min/L and 59 ± 2 µmol·min/L | fraction unbound at 1 h [3]: 0.08 | CLint scaled ([4]; human, pooled liver microsomes, calculated from t1/2 in HLM, read-out: In vitro CLint HLM): 4 mL/min/kg | half-life ([4]; pooled liver microsomes, human liver microsomes, NADPH, read-out: Degradation half-life HLM): > 150 min | Estimated in vivo CLH HLM ([4]; protein binding data included): 12.6 mL/min/kg
SMILES: CCCCCCCCCCOc1cc2c(=O)c(C(=O)NCCOCCO)c[nH]c2cc1OCC [RMB005]

From article PMC9450014, “The evaluation of ADME and pharmacokinetic properties of decoquinate derivatives for the treatment of malaria” (Frontiers in Pharmacology, 2022)
